From ChEMBL document CHEMBL1152364, “Dipeptidyl nitrile inhibitors of Cathepsin L” (Bioorg Med Chem Lett, 2009)

Tests used:
[1] = molecular target: Procathepsin L (Homo sapiens, UniProt P07711); assay: Inhibition of cathepsin L
[2] = molecular target: Cathepsin B (Homo sapiens, UniProt P07858); assay: Inhibition of cathepsin B
[3] = molecular target: T1, Cathepsin L2 (Homo sapiens, UniProt O60911); assay: Inhibition of cathepsin L2
T1 sequence (O60911 whole entry): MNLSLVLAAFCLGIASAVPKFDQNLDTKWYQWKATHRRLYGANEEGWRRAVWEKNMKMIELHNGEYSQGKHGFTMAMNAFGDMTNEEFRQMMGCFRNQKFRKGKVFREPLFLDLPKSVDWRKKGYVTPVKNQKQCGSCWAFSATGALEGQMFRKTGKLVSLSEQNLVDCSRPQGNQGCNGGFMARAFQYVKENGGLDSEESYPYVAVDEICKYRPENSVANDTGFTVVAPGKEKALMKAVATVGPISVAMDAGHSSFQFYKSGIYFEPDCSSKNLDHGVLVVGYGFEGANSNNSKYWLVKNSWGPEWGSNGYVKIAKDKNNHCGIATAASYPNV

[4] = molecular target: T2, Cathepsin K (Homo sapiens, UniProt P43235); assay: Inhibition of cathepsin K
T2 sequence (P43235 whole entry): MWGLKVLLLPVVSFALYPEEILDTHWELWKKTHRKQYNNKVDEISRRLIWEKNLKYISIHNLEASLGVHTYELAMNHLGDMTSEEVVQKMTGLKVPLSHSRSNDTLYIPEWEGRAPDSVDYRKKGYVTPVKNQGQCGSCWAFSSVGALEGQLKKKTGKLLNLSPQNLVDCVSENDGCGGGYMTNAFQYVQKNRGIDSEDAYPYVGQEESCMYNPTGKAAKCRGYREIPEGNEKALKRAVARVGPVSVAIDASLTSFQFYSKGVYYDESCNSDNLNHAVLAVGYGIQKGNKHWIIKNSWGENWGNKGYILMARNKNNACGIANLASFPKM

[5] = molecular target: Cathepsin S (Homo sapiens, UniProt P25774); assay: Inhibition of cathepsin S
Cathepsin S, sequence (P25774 whole entry): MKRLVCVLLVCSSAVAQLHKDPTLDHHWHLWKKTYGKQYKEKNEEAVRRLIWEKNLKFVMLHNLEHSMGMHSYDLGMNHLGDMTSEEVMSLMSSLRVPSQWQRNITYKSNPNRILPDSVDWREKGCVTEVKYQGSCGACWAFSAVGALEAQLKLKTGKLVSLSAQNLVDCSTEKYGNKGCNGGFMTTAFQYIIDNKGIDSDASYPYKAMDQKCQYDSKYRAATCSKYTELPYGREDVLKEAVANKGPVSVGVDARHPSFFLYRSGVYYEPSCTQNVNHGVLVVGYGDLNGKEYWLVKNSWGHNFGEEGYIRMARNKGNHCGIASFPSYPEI

Procathepsin L, sequence (P07711 whole entry): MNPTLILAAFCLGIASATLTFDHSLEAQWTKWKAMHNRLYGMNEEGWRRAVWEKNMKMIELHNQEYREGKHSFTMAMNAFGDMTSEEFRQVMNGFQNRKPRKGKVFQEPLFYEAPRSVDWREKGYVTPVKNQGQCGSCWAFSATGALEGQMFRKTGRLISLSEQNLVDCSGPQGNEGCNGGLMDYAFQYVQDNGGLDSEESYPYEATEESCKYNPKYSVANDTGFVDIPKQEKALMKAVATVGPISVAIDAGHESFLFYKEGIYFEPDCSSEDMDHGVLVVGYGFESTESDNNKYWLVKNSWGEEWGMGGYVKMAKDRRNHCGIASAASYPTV

**Q.** Which results are given for `CC(C)c1cc(C(=O)N[C@@H](Cc2cccc(Cl)c2)C(=O)NCC#N)n(C)n1`?
**A.** IC50 [1]: 79.4 nM; IC50 [2]: 5010 nM; IC50 [3]: 501 nM; IC50 [4]: 2000 nM; IC50 [5]: 794 nM

**Q.** With `N#CCNC(=O)[C@H](Cc1cccc(Cl)c1)NC(=O)c1ccnc2ccccc12` as the compound, how does the IC50 [1] read?
**A.** 100 nM

**Q.** What about the IC50 [2] of the same compound?
**A.** > 10000 nM

**Q.** What about the IC50 [3] of the same compound?
**A.** 3160 nM

**Q.** And the IC50 [4]?
**A.** > 10000 nM

**Q.** What about the IC50 [5] of the same compound?
**A.** 3160 nM

**Q.** With `Cc1cc(C(=O)N[C@@H](Cc2cccc(Cl)c2)C(=O)NCC#N)c2cc(C)ccc2c1` as the compound, how does the IC50 [1] read?
**A.** 20 nM

**Q.** What about the IC50 [2] of the same compound?
**A.** > 10000 nM

**Q.** What about the IC50 [3] of the same compound?
**A.** 1000 nM

**Q.** What about the IC50 [4] of the same compound?
**A.** > 10000 nM

**Q.** What about the IC50 [5] of the same compound?
**A.** 1000 nM

**Q.** Which results are given for `Cc1ccccc1C(=O)N[C@@H](Cc1cccc(Cl)c1)C(=O)NCC#N`?
**A.** IC50 [1]: 794 nM; IC50 [2]: > 10000 nM; IC50 [3]: 5010 nM; IC50 [4]: 5010 nM; IC50 [5]: 1580 nM

**Q.** For `Cc1cc(C(=O)N[C@@H](Cc2cccc(Cl)c2)C(=O)NCC#N)n(C)n1`, which IC50 [1] is on record?
**A.** 501 nM

**Q.** What about the IC50 [2] of the same compound?
**A.** > 10000 nM

**Q.** What about the IC50 [3] of the same compound?
**A.** 1260 nM

**Q.** And the IC50 [4]?
**A.** 6310 nM

**Q.** And the IC50 [5]?
**A.** 794 nM

**Q.** Which results are given for `Cc1nn(C)cc1C(=O)N[C@@H](Cc1cccc(Cl)c1)C(=O)NCC#N`?
**A.** IC50 [1]: 1260 nM; IC50 [2]: > 10000 nM; IC50 [3]: 1260 nM; IC50 [4]: 2510 nM; IC50 [5]: 1260 nM

**Q.** How did the IC50 [1] turn out when `N#CCNC(=O)[C@H](Cc1cccc(Cl)c1)NC(=O)C1CCCCCC1` was run?
**A.** 316 nM

**Q.** What about the IC50 [2] of the same compound?
**A.** > 10000 nM

**Q.** What about the IC50 [3] of the same compound?
**A.** 6310 nM

**Q.** And the IC50 [4]?
**A.** 5010 nM

**Q.** What about the IC50 [5] of the same compound?
**A.** 2510 nM

**Q.** Which IC50 [1] does the source give for `Cc1ccc(C)c(C(=O)N[C@@H](Cc2cccc(Cl)c2)C(=O)NCC#N)c1` here?
**A.** 79.4 nM

**Q.** What about the IC50 [2] of the same compound?
**A.** 5010 nM

**Q.** And the IC50 [3]?
**A.** 1580 nM

**Q.** And the IC50 [4]?
**A.** 6310 nM

**Q.** And the IC50 [5]?
**A.** 1260 nM

**Q.** How did the IC50 [1] turn out when `Cc1cccc(C(=O)N[C@@H](Cc2cccc(Cl)c2)C(=O)NCC#N)c1C` was run?
**A.** 316 nM

**Q.** And the IC50 [2]?
**A.** > 10000 nM

**Q.** What about the IC50 [3] of the same compound?
**A.** 3980 nM

**Q.** What about the IC50 [4] of the same compound?
**A.** > 10000 nM

**Q.** What about the IC50 [5] of the same compound?
**A.** 2000 nM

**Q.** Which IC50 [1] does the source give for `Cc1ccc(C(=O)N[C@@H](Cc2cccc(Cl)c2)C(=O)NCC#N)cc1` here?
**A.** 251 nM

**Q.** And the IC50 [2]?
**A.** 2510 nM

**Q.** What about the IC50 [3] of the same compound?
**A.** 1000 nM

**Q.** And the IC50 [4]?
**A.** 1260 nM

**Q.** What about the IC50 [5] of the same compound?
**A.** 631 nM

**Q.** `Cc1cccc(C(=O)N[C@@H](Cc2cccc(Cl)c2)C(=O)NCC#N)c1` was tested. Which IC50 [1] did it give?
**A.** 251 nM

**Q.** What about the IC50 [2] of the same compound?
**A.** 5010 nM

**Q.** What about the IC50 [3] of the same compound?
**A.** 794 nM

**Q.** What about the IC50 [4] of the same compound?
**A.** 6310 nM

**Q.** And the IC50 [5]?
**A.** 398 nM

**Q.** With `N#CCNC(=O)[C@H](Cc1cccc(Cl)c1)NC(=O)c1cccc(Cl)c1` as the compound, how does the IC50 [1] read?
**A.** 79.4 nM

**Q.** What about the IC50 [2] of the same compound?
**A.** 3980 nM

**Q.** And the IC50 [3]?
**A.** 200 nM

**Q.** What about the IC50 [4] of the same compound?
**A.** 6310 nM

**Q.** What about the IC50 [5] of the same compound?
**A.** 200 nM

**Q.** Which results are given for `N#CCNC(=O)[C@H](Cc1cccc(Cl)c1)NC(=O)C1=CCCCC1`?
**A.** IC50 [1]: 501 nM; IC50 [2]: > 10000 nM; IC50 [3]: 398 nM; IC50 [4]: > 10000 nM; IC50 [5]: 2000 nM

**Q.** Which results are given for `Cc1nc(C(=O)N[C@@H](Cc2cccc(Cl)c2)C(=O)NCC#N)c(C)o1`?
**A.** IC50 [1]: 631 nM; IC50 [2]: > 10000 nM; IC50 [3]: 2510 nM; IC50 [4]: 10000 nM; IC50 [5]: 794 nM

**Q.** With `Cc1cc(C(=O)N[C@@H](Cc2cccc(Cl)c2)C(=O)NCC#N)c(C)s1` as the compound, how does the IC50 [1] read?
**A.** 79.4 nM

**Q.** And the IC50 [2]?
**A.** 2000 nM

**Q.** And the IC50 [3]?
**A.** 501 nM

**Q.** What about the IC50 [4] of the same compound?
**A.** 5010 nM

**Q.** And the IC50 [5]?
**A.** 794 nM

**Q.** For `Cc1cc(C)cc(C(=O)N[C@@H](Cc2cccc(Cl)c2)C(=O)NCC#N)c1`, which IC50 [1] is on record?
**A.** 50.1 nM

**Q.** And the IC50 [2]?
**A.** 7940 nM

**Q.** And the IC50 [3]?
**A.** 200 nM

**Q.** And the IC50 [4]?
**A.** > 10000 nM

**Q.** And the IC50 [5]?
**A.** 316 nM

**Q.** What does the source list for `N#CCNC(=O)[C@H](Cc1cccc(Cl)c1)NC(=O)c1cccc2ccccc12`?
**A.** IC50 [1]: 251 nM; IC50 [2]: 10000 nM; IC50 [3]: 3980 nM; IC50 [4]: > 10000 nM; IC50 [5]: 3160 nM

**Q.** Which results are given for `N#CCNC(=O)[C@H](Cc1cccc(Cl)c1)NC(=O)C1CCCCC1`?
**A.** IC50 [1]: 1260 nM; IC50 [2]: > 10000 nM; IC50 [3]: 6310 nM; IC50 [4]: > 10000 nM; IC50 [5]: 2510 nM

**Q.** How did the IC50 [1] turn out when `CCc1cc(C(=O)N[C@@H](Cc2cccc(Cl)c2)C(=O)NCC#N)n(C)n1` was run?
**A.** 63.1 nM

**Q.** What about the IC50 [2] of the same compound?
**A.** 7940 nM

**Q.** What about the IC50 [3] of the same compound?
**A.** 501 nM

**Q.** What about the IC50 [4] of the same compound?
**A.** 5010 nM

**Q.** And the IC50 [5]?
**A.** 794 nM

**Q.** What does the source list for `Cc1nc(C)c(C(=O)N[C@@H](Cc2cccc(Cl)c2)C(=O)NCC#N)s1`?
**A.** IC50 [1]: 398 nM; IC50 [2]: 10000 nM; IC50 [3]: 251 nM; IC50 [4]: 1260 nM; IC50 [5]: 200 nM

**Q.** How did the IC50 [1] turn out when `N#CCNC(=O)[C@H](Cc1cccc(Cl)c1)NC(=O)c1cccc2c1CCCC2` was run?
**A.** 398 nM

**Q.** What about the IC50 [2] of the same compound?
**A.** > 10000 nM

**Q.** And the IC50 [3]?
**A.** > 10000 nM

**Q.** And the IC50 [4]?
**A.** > 10000 nM

**Q.** What about the IC50 [5] of the same compound?
**A.** > 10000 nM
